# Experimental data taken from patent US20150105252A1, “SUBSTITUTED PYRAZOLES AS HERBICIDES” (E I DU PONT DE NEMOURS AND COMPANY, priority 2013, published 2015).
# Columns and labels:
# [1] = tested on: morningglory; experiment: Test E preemergence; format: in vivo, Ipomoea lacunosa; conditions: 21 days, scale 0 to 100
# Excerpt: (§1) Seeds of plant species selected from bermudagrass (Cynodon dactylon), Surinam grass (Brachiaria decumbens), crabgrass, large (large crabgrass, Digitaria sanguinalis), crabgrass, naked (naked crabgrass, Digitaria nuda), foxtail, green (green foxtail, Setaria viridis), johnsongrass (Sorghum halepense), kochia (Kochia scoparia), morningglory (pitted morningglory, Ipomoea lacunosa), nutsedge, purple (purple nutsedge, Cyperus rotundus), ragweed (common ragweed, Ambrosia elation), mustard, black (black mustard, Brassica nigra), guineagrass (Panicum maximum), dallisgrass (Paspalum dilatatum), barnyardgrass (Echinochloa crus-galli), sandbur (southern sandbur, Cenchrus echinatus), sowthistle (common sowthistle, Sonchus oleraceous), ryegrass, Italian (Italian ryegrass, Lolium multiflorum), signalgrass (broadleaf signalgrass, Brachiaria platyphylla), dayflower, VA (Virginia (VA) dayflower, Commelina virginica), bluegrass (annual bluegrass, Poa annua), quackgrass (Elytrigia repens), mallow (common mallow, Malva sylvestris), buckwheat, wild (wild buckwheat, Polygonum convolvulus), leafy spurge (Euphorbia esula), common chickweed (Stellaria media), wild poinsettia (Euphorbia heterophylla), pigweed, palmer (palmer pigweed, Amaranthus palmeri), and pigweed (redroot pigweed, Amaranthus retroflexus) were planted into a blend of loam soil and sand and treated preemergence with test chemicals formulated in a non-phytotoxic solvent mixture which included a surfactant.
# (§2) Treated plants and controls were maintained in a greenhouse for 21 days, after which time all species were compared to controls and visually evaluated. Plant response ratings, summarized in Table E, are based on a scale of 0 to 100 where 0 is no effect and 100 is complete control. A dash (-) response means no test result.
# [2] = tested on: barnyardgrass; experiment: Test E preemergence; format: in vivo, Echinochloa crus-galli; conditions: 21 days, scale 0 to 100
# Excerpt: as §1, §2
# [3] = tested on: field bindweed; experiment: Test F postemergence; format: in vivo, Convolvulus arvensis; conditions: scale 0 to 100
# Excerpt: Seeds of plant species selected from corn (Zea mays), soybean (Glycine max), velvetleaf (Abutilon theophrasti), lambsquarters (Chenopodium album), wild poinsettia (Euphorbia heterophylla), pigweed, palmer (palmer pigweed, Amaranthus palmeri), common waterhemp (Amaranthus rudis), surinam grass (Brachiaria decumbens), large crabgrass (Digitaria sanguinalis), crabgrass, Brazil (Brazilian crabgrass, Digitaria horizontalis), fall panicum (Panicum dichotomiflorum), giant foxtail (Setaria faberii), green foxtail (Setaria viridis), goosegrass (Eleusine indica), johnsongrass (Sorghum halepense), common ragweed (Ambrosia elation), barnyardgrass (Echinochloa crus-galli), southern sandbur (Cenchrus echinatus), arrowleaf sida (Sida rhombifolia), Italian ryegrass (Lolium multiflorum), dayflower, VA (Virginia (VA) dayflower, Commelina virginica), field bindweed (Convolvulus arvensis), cocklebur (common cocklebur, Xanthium strumarium), morningglory (Ipomoea coccinea), nightshade (eastern black nightshade, Solanum ptycanthum), kochia (Kochia scoparia), yellow nutsedge (Cyperus esculentus), and hairy beggarticks (Bidens pilosa), were planted into a silt loam soil and treated preemergence with test chemicals formulated in a non-phytotoxic solvent mixture which included a surfactant.
# At the same time, plants from these crop and weed species and also horseweed (Canada horseweed, Conyza canadensis), smartweed (ladysthumb smartweed, Polygonum persicaria), waterhemp_RES1, (ALS & Triazine resistant common waterhemp, Amaranthus rudis), and waterhemp_RES2, (ALS & HPPD resistant common waterhemp, Amaranthus rudis) were treated with postemergence applications of test chemicals formulated in the same manner. Plants ranged in height from 2 to 18 cm for postemergence treatments (1- to 4-leaf stage). Treated plants and controls were maintained in a greenhouse for 14 to 21 days, after which time all species were compared to controls and visually evaluated. Plant response ratings, summarized in Table F, are based on a scale of 0 to 100 where 0 is no effect and 100 is complete control. A dash (-) response means no test result.
# [4] = tested on: bermudagrass; experiment: Test E preemergence; format: in vivo, Cynodon dactylon; conditions: 21 days, scale 0 to 100
# Excerpt: as §1, §2
# [5] = tested on: oat, wild; experiment: Test D preemergence; format: in vivo, Avena fatua; conditions: scale 0 to 100
# Excerpt: Seeds of plant species selected from bluegrass (annual bluegrass, Poa annua), blackgrass (Alopecurus myosuroides), canarygrass (littleseed canarygrass, Phalaris minor), chickweed (common chickweed, Stellaria media), galium (catchweed bedstraw, Galium aparine), bromegrass, downy (downy bromegrass, Bromus tectorum), field poppy (Papaver rhoeas), field violet (Viola arvensis), foxtail, green (green foxtail, Setaria viridis), deadnettle (henbit deadnettle, Lamium amplexicaule), ryegrass, Italian (Italian ryegrass, Lolium multiflorum), kochia (Kochia scoparia), lambsquarters (Chenopodium album), oilseed rape (Brassica napus), pigweed (redroot pigweed, Amaranthus retroflexus), chamomile (scentless chamomile, Matricaria inodora), speedwell (bird's-eye speedwell, Veronica persica), barley, spring (spring barley, Hordeum vulgare), wheat, spring (spring wheat, Triticum aestivum), buckwheat, wild (wild buckwheat, Polygonum convolvulus), mustard, wild (wild mustard, Sinapis arvensis), oat, wild (wild oat, Avena fatua), radish, wild (wild radish, Raphanus raphanistrum), windgrass (Apera spica-venti), Russian thistle (Salsola kali), barley, winter (winter barley, Hordeum vulgare), and wheat, winter (winter wheat, Triticum aestivum) were planted into a silt loam soil and treated preemergence with test chemicals formulated in a non-phytotoxic solvent mixture which included a surfactant.
# At the same time, these species were planted in pots containing Redi-Earth® planting medium (Scotts Company, 14111 Scottslawn Road, Marysville, Ohio 43041) comprising spaghnum peat moss, vermiculite, wetting agent and starter nutrients and treated with postemergence applications of the test chemicals formulated in the same manner. Plants ranged in height from 2 to 18 cm (1- to 4-leaf stage). Treated plants and controls were maintained in a controlled growth environment for 14 to 21 days after which time all species were compared to controls and visually evaluated. Plant response ratings, summarized in Table D, are based on a scale of 0 to 100 where 0 is no effect and 100 is complete control. A dash (-) response means no test result.
compound,measurement,setting,value
"CCc1cc(C(=O)NCC(F)(F)F)nn1Cc1ccnc(C(F)(F)F)c1 [Compound 78, 5-ethyl-N-(2,2,2-trifluoroethyl)-1-[[(2-trifluoromethyl)-4-pyridinyl]methyl]-1H-pyrazole-3-carboxamide]","Plant response rating, Morningglory",[1]; 16 g ai/ha,50
same,"Plant response rating, Morningglory",[1]; 31 g ai/ha,70
same,"Plant response rating, Morningglory",[1]; 62 g ai/ha,90
same,"Plant response rating, Morningglory",[1]; 125 g ai/ha,100
same,"Plant response rating, Morningglory",[1]; 250 g ai/ha,100
same,"Plant response rating, Barnyardgrass",[2]; 16 g ai/ha,35
same,"Plant response rating, Barnyardgrass",[2]; 31 g ai/ha,95
same,"Plant response rating, Barnyardgrass",[2]; 62 g ai/ha,100
same,"Plant response rating, Barnyardgrass",[2]; 125 g ai/ha,100
same,"Plant response rating, Barnyardgrass",[2]; 250 g ai/ha,100
same,"Plant response rating, Field Bindweed","[3]; Postemergence, 31 g ai/ha",40
same,"Plant response rating, Field Bindweed","[3]; Postemergence, 125 g ai/ha",90
same,"Plant response rating, Field Bindweed","[3]; Postemergence, 250 g ai/ha",95
same,"Plant response rating, Field Bindweed","[3]; postemergence, 62 g ai/ha",70
same,"Plant response rating, Field Bindweed","[3]; postemergence, 500 g ai/ha",98
same,"Plant response rating, Bermudagrass",[4]; 16 g ai/ha,70
same,"Plant response rating, Bermudagrass",[4]; 31 g ai/ha,85
same,"Plant response rating, Bermudagrass",[4]; 62 g ai/ha,100
same,"Plant response rating, Bermudagrass",[4]; 125 g ai/ha,100
same,"Plant response rating, Bermudagrass",[4]; 250 g ai/ha,100
CCc1cc(C(=O)NC(C)C)nn1Cc1ccnc(C(F)(F)F)c1 [Compound 103],"Plant response rating, Morningglory",[1]; 16 g ai/ha,95
same,"Plant response rating, Morningglory",[1]; 31 g ai/ha,100
same,"Plant response rating, Morningglory",[1]; 62 g ai/ha,100
same,"Plant response rating, Morningglory",[1]; 125 g ai/ha,100
same,"Plant response rating, Morningglory",[1]; 250 g ai/ha,100
same,"Plant response rating, Barnyardgrass",[2]; 16 g ai/ha,90
same,"Plant response rating, Barnyardgrass",[2]; 31 g ai/ha,100
same,"Plant response rating, Barnyardgrass",[2]; 62 g ai/ha,100
same,"Plant response rating, Barnyardgrass",[2]; 125 g ai/ha,100
same,"Plant response rating, Barnyardgrass",[2]; 250 g ai/ha,100
same,"Plant response rating, Bermudagrass",[4]; 16 g ai/ha,80
same,"Plant response rating, Bermudagrass",[4]; 31 g ai/ha,98
same,"Plant response rating, Bermudagrass",[4]; 62 g ai/ha,100
same,"Plant response rating, Bermudagrass",[4]; 125 g ai/ha,98
same,"Plant response rating, Bermudagrass",[4]; 250 g ai/ha,100
CCCc1cc(C(=O)NCC(F)(F)F)nn1Cc1ccnc(C(F)(F)F)c1 [Compound 105],"Plant response rating, Morningglory",[1]; 16 g ai/ha,100
same,"Plant response rating, Morningglory",[1]; 31 g ai/ha,100
same,"Plant response rating, Morningglory",[1]; 62 g ai/ha,100
same,"Plant response rating, Morningglory",[1]; 125 g ai/ha,100
same,"Plant response rating, Morningglory",[1]; 250 g ai/ha,100
same,"Plant response rating, Barnyardgrass",[2]; 16 g ai/ha,35
same,"Plant response rating, Barnyardgrass",[2]; 31 g ai/ha,70
same,"Plant response rating, Barnyardgrass",[2]; 62 g ai/ha,85
same,"Plant response rating, Barnyardgrass",[2]; 125 g ai/ha,95
same,"Plant response rating, Barnyardgrass",[2]; 250 g ai/ha,98
same,"Plant response rating, Field Bindweed","[3]; Postemergence, 31 g ai/ha",70
same,"Plant response rating, Field Bindweed","[3]; Postemergence, 125 g ai/ha",70
same,"Plant response rating, Field Bindweed","[3]; Postemergence, 250 g ai/ha",80
same,"Plant response rating, Field Bindweed","[3]; postemergence, 62 g ai/ha",75
same,"Plant response rating, Field Bindweed","[3]; postemergence, 500 g ai/ha",90
same,"Plant response rating, Bermudagrass",[4]; 16 g ai/ha,70
same,"Plant response rating, Bermudagrass",[4]; 31 g ai/ha,90
same,"Plant response rating, Bermudagrass",[4]; 62 g ai/ha,98
same,"Plant response rating, Bermudagrass",[4]; 125 g ai/ha,98
same,"Plant response rating, Bermudagrass",[4]; 250 g ai/ha,100
CCOc1cc(C(=O)NCC(F)(F)F)nn1Cc1ccnc(C(F)(F)F)c1 [Compound 104],"Plant response rating, Morningglory",[1]; 16 g ai/ha,98
same,"Plant response rating, Morningglory",[1]; 31 g ai/ha,98
same,"Plant response rating, Morningglory",[1]; 62 g ai/ha,100
same,"Plant response rating, Morningglory",[1]; 125 g ai/ha,100
same,"Plant response rating, Morningglory",[1]; 250 g ai/ha,100
same,"Plant response rating, Barnyardgrass",[2]; 16 g ai/ha,95
same,"Plant response rating, Barnyardgrass",[2]; 31 g ai/ha,100
same,"Plant response rating, Barnyardgrass",[2]; 62 g ai/ha,100
same,"Plant response rating, Barnyardgrass",[2]; 125 g ai/ha,100
same,"Plant response rating, Barnyardgrass",[2]; 250 g ai/ha,100
same,"Plant response rating, Field Bindweed","[3]; Postemergence, 31 g ai/ha",70
same,"Plant response rating, Field Bindweed","[3]; Postemergence, 125 g ai/ha",90
same,"Plant response rating, Field Bindweed","[3]; Postemergence, 250 g ai/ha",90
same,"Plant response rating, Field Bindweed","[3]; postemergence, 62 g ai/ha",70
same,"Plant response rating, Field Bindweed","[3]; postemergence, 500 g ai/ha",95
same,"Plant response rating, Bermudagrass",[4]; 16 g ai/ha,90
same,"Plant response rating, Bermudagrass",[4]; 31 g ai/ha,95
same,"Plant response rating, Bermudagrass",[4]; 62 g ai/ha,98
same,"Plant response rating, Bermudagrass",[4]; 125 g ai/ha,100
same,"Plant response rating, Bermudagrass",[4]; 250 g ai/ha,100
CCCc1cc(C(=O)NCC(F)(F)F)nn1Cc1cc(C(F)(F)F)nn1C [Compound 138],"Plant response rating, Oat, Wild",[5]; 62 g ai/ha,35
same,"Plant response rating, Oat, Wild",[5]; 125 g ai/ha,75
same,"Plant response rating, Oat, Wild",[5]; 250 g ai/ha,100
CCOc1cc(C(=O)NC(C)C)nn1Cc1ccnc(C(F)(F)F)c1 [Compound 188],"Plant response rating, Oat, Wild",[5]; 62 g ai/ha,100
same,"Plant response rating, Oat, Wild",[5]; 125 g ai/ha,100
same,"Plant response rating, Oat, Wild",[5]; 250 g ai/ha,100
same,"Plant response rating, Field Bindweed","[3]; Postemergence, 31 g ai/ha",70
same,"Plant response rating, Field Bindweed","[3]; Postemergence, 125 g ai/ha",90
same,"Plant response rating, Field Bindweed","[3]; Postemergence, 250 g ai/ha",95
same,"Plant response rating, Field Bindweed","[3]; postemergence, 62 g ai/ha",70
same,"Plant response rating, Field Bindweed","[3]; postemergence, 500 g ai/ha",95
CCOc1cc(C(=O)NC2CC2)nn1Cc1ccnc(C(F)(F)F)c1 [Compound 189],"Plant response rating, Morningglory",[1]; 4 g ai/ha,0
same,"Plant response rating, Morningglory",[1]; 8 g ai/ha,30
same,"Plant response rating, Morningglory",[1]; 16 g ai/ha,90
same,"Plant response rating, Morningglory",[1]; 31 g ai/ha,100
same,"Plant response rating, Morningglory",[1]; 62 g ai/ha,100
same,"Plant response rating, Barnyardgrass",[2]; 4 g ai/ha,0
same,"Plant response rating, Barnyardgrass",[2]; 8 g ai/ha,0
same,"Plant response rating, Barnyardgrass",[2]; 16 g ai/ha,35
same,"Plant response rating, Barnyardgrass",[2]; 31 g ai/ha,100
same,"Plant response rating, Barnyardgrass",[2]; 62 g ai/ha,100
same,"Plant response rating, Oat, Wild",[5]; 62 g ai/ha,45
same,"Plant response rating, Oat, Wild",[5]; 125 g ai/ha,75
same,"Plant response rating, Oat, Wild",[5]; 250 g ai/ha,100
same,"Plant response rating, Bermudagrass",[4]; 4 g ai/ha,0
same,"Plant response rating, Bermudagrass",[4]; 8 g ai/ha,0
same,"Plant response rating, Bermudagrass",[4]; 16 g ai/ha,65
same,"Plant response rating, Bermudagrass",[4]; 31 g ai/ha,85
same,"Plant response rating, Bermudagrass",[4]; 62 g ai/ha,98
